Data: patent US20140248358A1, “Therapeutic Nanoparticles Comprising a Therapeutic Agent and Methods of Making and Using Same” (BIND Therapeutics, Inc., priority 2012, published 2014)
≈ marks a conversion by molar mass, not a printed value. Where a name gives a salt, the structure may show the parent alone. Read-outs that look alike come from different tables or passages of the source.

Assays:
[1] = cited from earlier work
[2] = Stability of dasatinib in release buffer at 37° C.
[3] = Solubility of dasatinib in solvents, quantified using HPLC; format: physicochemical; settings: for solubility: organic solvent or mixture, read-out: Dasatinib solubility (mg/mL, by HPLC)
Excerpt: The solubility of dasatinib in benzyl alcohol, ethyl acetate, and mixtures of oleic acid and benzyl alcohol were quantified using HPLC.

[4] = hydrophobic acid; cited from earlier work
[5] = protonatable nitrogen-containing therapeutic agent

Q: Which pKa [1, 5] does the source give for CCN(CC)CCNC(=O)c1c(C)[nH]c(/C=C2\C(=O)Nc3ccc(F)cc32)c1C [sunitinib, reference compound] here?
A: Its pKa is 7.07.

Q: With CC[C@]1(O)C[C@H]2CN(CCc3c([nH]c4ccccc34)[C@@](C(=O)OC)(c3cc4c(cc3OC)N(C=O)[C@H]3[C@@](O)(C(=O)OC)[C@H](OC(C)=O)[C@]5(CC)C=CCN6CC[C@]43[C@@H]65)C2)C1 [vincristine, reference compound] as the compound, how does the pKa [1, 5] read?
A: The pKa was 7.08.

Q: Which pKa [1, 5] does the source give for Cc1ccc(NC(=O)c2ccc(CN3CCN(C)CC3)cc2)cc1Nc1nccc(-c2cccnc2)n1 [imatinib, reference compound] here?
A: Its pKa is 8.38.

Q: Which pKa ([1]; hydrophobic acid) does the source give for CCCCCCCC/C=C\CCCCCCCC(=O)OC[C@H](COP(=O)(O)O)OC(=O)CCCCCCC/C=C\CCCCCCCC [dioleoyl phosphatidic acid] here?
A: The pKa was ~2.

Q: Which results are given for Cc1nc(Nc2ncc(C(=O)Nc3c(C)cccc3Cl)s2)cc(N2CCN(CCO)CC2)n1 [dasatinib]?
A: pKa [1, 5]: 7.07; stability in release buffer [2]: degraded after 24 hours; solubility ([3]; 3% oleic acid in benzyl alcohol, 3% Oleic Acid in BA): 16.8 mg/mL (≈ 34.5 mM); solubility ([3]; 6% oleic acid in benzyl alcohol, 6% Oleic Acid in BA): 25.2 mg/mL (≈ 51.6 mM); solubility ([3]; 9% oleic acid in benzyl alcohol, 9% Oleic Acid in BA): 29.8 mg/mL (≈ 61.1 mM); improvement of solubility of dasatinib ([3]; benzyl alcohol doped with oleic acid vs benzyl alcohol): 2-3 fold; solubility ([3]; solvent BA (benzyl alcohol)): 9.45 mg/mL (≈ 19.4 mM); solubility ([3]; solvent EA (ethyl acetate)): 0.32 mg/mL (≈ 0.656 mM)

Q: Which results are given for CCCCCCCCCCCCc1ccc(S(=O)(=O)O)cc1 [dodecylbenzenesulfonic acid]?
A: pKa ([1]; hydrophobic acid): −1.8; log P [4]: 6.6

Q: Which pKa ([1]; hydrophobic acid) does the source give for CCCCCCCC/C=C\CCCCCCCC(=O)O [oleic acid] here?
A: The pKa was 4-5.

Q: What about the “log P” value [4] of the same compound?
A: The value was 6.78.

Q: Which results are given for O=S(=O)(O)c1ccc2ccccc2c1 [naphthalene-2-sulfonic acid]?
A: pKa ([1]; hydrophobic acid): −1.8; log P [4]: 2.1

Q: For C[C@H](CCC(=O)O)[C@H]1CC[C@H]2[C@@H]3CC[C@@H]4C[C@H](O)CC[C@]4(C)[C@H]3C[C@H](O)[C@]12C [deoxycholic acid], which pKa ([1]; hydrophobic acid) is on record?
A: Its pKa is 4.65.

Q: And the “log P” value [4]?
A: Its value is 3.79.

Q: Which pKa ([1]; hydrophobic acid) does the source give for O=C(O)c1cc2ccccc2c(Cc2c(O)c(C(=O)O)cc3ccccc23)c1O [pamoic acid] here?
A: The pKa was 2.4.

Q: Which pKa ([1]; hydrophobic acid) does the source give for C=C1CC[C@@H](OS(=O)(=O)O)C/C1=C/C=C1\CCC[C@]2(C)[C@@H]([C@H](C)CCCC(C)C)CC[C@@H]12 [Vitamin D3-sulfate] here?
A: The pKa was −1.5.

Q: What does the source list for O=S(=O)(O)c1cccc2c(S(=O)(=O)O)cccc12 [naphthalene-1,5-disulfonic acid]?
A: pKa ([1]; hydrophobic acid): −2; log P [4]: 1.3

Q: Which pKa ([1]; hydrophobic acid) does the source give for CC(C)CCC[C@@H](C)[C@H]1CC[C@H]2[C@@H]3CC=C4C[C@@H](OS(=O)(=O)O)CC[C@]4(C)[C@H]3CC[C@]12C [cholesteryl sulfate] here?
A: The pKa was −1.4.

Q: Which results are given for CCCCCCCCCCCCOS(=O)(=O)O [dodecylsulfuric acid]?
A: pKa ([1]; hydrophobic acid): −0.09; log P [4]: 4.5

Q: With O=C(O)c1ccc2ccccc2c1O [1-hydroxy-2-naphthoic acid] as the compound, how does the pKa ([1]; hydrophobic acid) read?
A: Its pKa is 2-3.

Q: What about the “log P” value [4] of the same compound?
A: Its value is 2.97.
